The numbers were not newly measured in patent US20090239878A1, “COMBINATIONS OF (A) AN ATP-COMPETITIVE INHIBITOR OF C-ABL KINASE ACTIVITY WITH (B) TWO OR MORE OTHER ANTINEOPLASTIC AGENTS” (priority 2002, published 2009), which cites them from elsewhere.

The subject of series [1] is platelet-derived growth factor receptor. As to conditions: preclinical studies.
Series [2] concerns the target c-kit receptor (Homo sapiens, UniProt P10721). As to conditions: preclinical studies.
The subject of series [3] is CEM/ara-C/I monoclonal clone. As to conditions: ara-C resistant cell line versus CEM/0.

Chain of c-kit receptor (P10721 26-976): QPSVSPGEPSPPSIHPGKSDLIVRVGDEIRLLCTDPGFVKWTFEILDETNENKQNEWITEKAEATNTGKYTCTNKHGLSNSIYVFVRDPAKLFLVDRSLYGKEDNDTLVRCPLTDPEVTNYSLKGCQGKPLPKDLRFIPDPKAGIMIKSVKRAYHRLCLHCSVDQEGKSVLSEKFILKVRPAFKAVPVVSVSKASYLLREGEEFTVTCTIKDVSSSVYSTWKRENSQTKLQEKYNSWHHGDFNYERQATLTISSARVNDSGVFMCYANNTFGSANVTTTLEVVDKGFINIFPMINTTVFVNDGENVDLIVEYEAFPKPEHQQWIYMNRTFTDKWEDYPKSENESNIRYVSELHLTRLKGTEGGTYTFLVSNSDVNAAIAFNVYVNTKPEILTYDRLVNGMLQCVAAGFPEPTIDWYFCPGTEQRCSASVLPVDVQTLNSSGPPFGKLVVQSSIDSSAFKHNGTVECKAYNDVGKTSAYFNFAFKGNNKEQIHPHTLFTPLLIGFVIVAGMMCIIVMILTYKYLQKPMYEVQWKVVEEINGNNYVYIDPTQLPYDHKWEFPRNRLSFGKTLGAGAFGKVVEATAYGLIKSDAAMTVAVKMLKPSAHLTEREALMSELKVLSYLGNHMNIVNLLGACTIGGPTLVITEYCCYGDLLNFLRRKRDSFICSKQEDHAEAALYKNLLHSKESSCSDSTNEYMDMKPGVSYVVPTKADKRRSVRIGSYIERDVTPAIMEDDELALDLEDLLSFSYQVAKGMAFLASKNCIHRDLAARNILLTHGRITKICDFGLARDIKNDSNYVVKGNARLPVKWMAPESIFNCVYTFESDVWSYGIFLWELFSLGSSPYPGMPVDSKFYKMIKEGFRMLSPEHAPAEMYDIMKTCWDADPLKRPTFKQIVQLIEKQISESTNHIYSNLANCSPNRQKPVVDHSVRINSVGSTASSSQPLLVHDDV

As for “N-{5-[4-(4-methyl-piperazino-methyl)-benzoylamido]-2-methylphenyl}-4-(3-pyridyl)-2-pyrimidine-amine [STI571]”, the “inhibition of kinase activity” value in series [1] and in series [2] was “inhibits the kinase activities” in each case.
Consider `Nc1ccn([C@@H]2O[C@H](CO)[C@@H](O)[C@@H]2O)c(=O)n1` [ara-C, cytosine arabinoside], for which the “sensitivity to ara-C relative to wild type” value in series [3] was “less than 1 % of the wild type CEM/0 cell line”.
